Test results from patent US20220363689A1, “INHIBITOR OF BTK AND MUTANTS THEREOF” (Newave Pharmaceutical Inc., priority 2019, published 2022).
Read-outs that look alike come from different tables or passages of the source.

How the values were obtained:
[1] = test system: liver cancer cell line HepG2; assay: HepG2 in vitro liver toxicity assay (ATPlite); type: cell-based; settings: another experiment, about 72 hours incubation, read-out: HepG2 IC50 (another experiment)
Procedure: Cell antiproliferation is assayed by PerkinElmer ATPlite™ Luminescence Assay System. Briefly, the liver cancer cell line HepG2 are plated at a density of about 1×10^4 cells per well in Costar 96-well plates, and are incubated with different concentrations of compounds for about 72 hours in medium supplemented with 5% FBS. One lyophilized substrate solution vial is then reconstituted by adding 5 mL of substrate buffer solution, and is agitated gently until the solution is homogeneous. About 50 μL of mammalian cell lysis solution is added to 100 μL of cell suspension per well of a microplate, and the plate is shaken for about five minutes in an orbital shaker at −700 rpm. This procedure is used to lyse the cells and to stabilize the ATP. Next, 50 μL substrate solution is added to the wells and microplate is shaken for five minutes in an orbital shaker at −700 rpm. Finally, the luminescence is measured by a PerkinElmer TopCount® Microplate Scintillation Counter. Such assays, carried out with a range of doses of test compounds, allow the determination of the cellular anti-antiproliferative IC50 of the compounds of the present invention.

Mice PK study = type: in vivo; settings: plasma, CD-1 mouse, po, 25 mg/kg
Procedure: The pharmacokinetics of compounds were evaluated in CD-1 mouse via Intravenous and Oral Administration. The IV dose was administered as a slow bolus in the Jugular vein, and oral doses were administered by gavage. The formulation for IV dosing is 5% DMSO in 20% HPBCD in water, and the PO formulation is 2.5% DMSO, 10% EtOH, 20% Cremphor EL, 67.5% D5W. The PK time point for the IV arm was 5, 15, 30 min, 1, 2, 4, 6, 8, 12, 24 hours post dose, and for PO arm was 15, 30 min, 1, 2, 4, 6, 8, 12, 24 hours post dose. Approximately 0.03 mL blood was collected at each time point. Blood of each sample was transferred into plastic micro centrifuge tubes containing EDTA-K2 and plasma was collected within 15 min by centrifugation at 4000 g for 5 minutes in a 4° C. centrifuge. Plasma samples were stored in polypropylene tubes. The samples were stored in a freezer at −75±15° C. prior to analysis. Concentrations of compounds in the plasma samples were analyzed using a LC-MS/MS method. WinNonlin (Phoenix™, version 6.1) or other similar software was used for pharmacokinetic calculations. The following pharmacokinetic parameters were calculated, whenever possible from the plasma concentration versus time data: IV administration: C0, CL, Vd, T1/2, AUCinf, AUClast, MRT, Number of Points for Regression; PO administration: Cmax, Tmax, T1/2, AUCinf, AUClast, F %, Number of Points for Regression. The pharmacokinetic data was described using descriptive statistics such as mean, standard deviation. Additional pharmacokinetic or statistical analysis was performed at the discretion of the contributing scientist, and was documented in the data summary. For comparison purpose, the PK results of oral dosing of po, 25 mg/kg of Acalbrutinib, a FDA approved BTK inhibitor, were obtained using the same methods and shown in the Table below.

WT BTK [2] = target: T1, WT BTK (Homo sapiens, UniProt Q06187); assay: In vitro dialysis assay (irreversibility assay), WT BTK; type: biochemical; settings: reversible or irreversible/covalent inhibition after 24 h dialysis
T1 sequence (Q06187 whole entry): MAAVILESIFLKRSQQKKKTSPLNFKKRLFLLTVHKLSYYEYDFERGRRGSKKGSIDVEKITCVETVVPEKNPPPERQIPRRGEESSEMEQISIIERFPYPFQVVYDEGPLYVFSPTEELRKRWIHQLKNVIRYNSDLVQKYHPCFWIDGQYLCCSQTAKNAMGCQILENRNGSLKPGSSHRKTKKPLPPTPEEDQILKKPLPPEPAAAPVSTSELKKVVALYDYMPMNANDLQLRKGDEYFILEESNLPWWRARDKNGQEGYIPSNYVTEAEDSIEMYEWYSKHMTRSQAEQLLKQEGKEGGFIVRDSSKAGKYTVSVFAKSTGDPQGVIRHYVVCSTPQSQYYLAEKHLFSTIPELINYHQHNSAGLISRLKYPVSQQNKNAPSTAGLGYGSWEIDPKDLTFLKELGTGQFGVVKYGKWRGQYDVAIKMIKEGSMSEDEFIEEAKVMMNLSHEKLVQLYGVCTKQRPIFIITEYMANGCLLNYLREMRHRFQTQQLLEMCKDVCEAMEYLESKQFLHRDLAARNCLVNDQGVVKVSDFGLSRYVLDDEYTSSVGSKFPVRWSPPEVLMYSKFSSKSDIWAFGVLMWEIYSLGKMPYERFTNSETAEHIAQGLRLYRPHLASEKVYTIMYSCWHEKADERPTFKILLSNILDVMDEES
Procedure: The compound-enzyme complex was dialyzed against the same buffer supplemented with 40 mM ATP for 24 hr. Cumulative dialysis factor>160,000×. After dialysis, the BTK activity was measured in the presence […] and 1 mM substrate peptide and compared to that in non-dialyzed samples. Assay buffer: 100 mM HEPES, pH7.5; […]; 5 mM MgCl2; 1 mM DTT. In this study, Ibrutiib (a FDA approved irreversible BTK inhibitor) was used as a positive control and Saurosporine (a reversible BTK inhibitor) was used as a negative control.

C4815S BTK enzyme = C4815S BTK enzyme (Homo sapiens, UniProt Q06187, C481S); assay: Reversibility of binding to C481S BTK enzyme; type: biochemical; settings: Cysteine residue not available for covalent binding
C4815S BTK enzyme, sequence (Q06187 whole entry C481S): as the sequence (Q06187 whole entry) above, with C481S counted along it

WT BTK [3] = target: T1, WT BTK; assay: Caliper-based kinase assay, WT BTK; type: biochemical; settings: 0.5 nM enzyme, ATP 16 μM, room temperature 3 h; read-out: WT BTK IC50 (nM) (irreversible inhibition)
Procedure: (§1) A Caliper-based kinase assay (Caliper Life Sciences, Hopkinton, Mass.) was used to measure inhibition of WT and […] Btk kinase activity of a compound of the present disclosure. […] The reaction was then terminated with EDTA, final concentration 20 mM and the phosphorylated reaction product was quantified on a Caliper Desktop Profiler (Caliper LabChip 3000).

C481S Btk = C481S Btk (Homo sapiens, UniProt Q06187, C481S); assay: Caliper-based kinase assay, C481S BTK; type: biochemical; settings: 0.5 nM enzyme, ATP 16 μM, room temperature 3 h; read-out: C481S BTK IC50 (nM) (reversible inhibition)
C481S Btk, sequence (Q06187 whole entry C481S): as the sequence (Q06187 whole entry) above, with C481S counted along it
Procedure: as §1

[4] = test system: basophil activation, B cell receptor activation, and constitutive p-BTK activity in whole blood lysates; settings: read-out: IC50s for basophil activation, B cell receptor activation, and constitutive p-BTK activity; cited from earlier work
[5] = rats, treatment for longer than 7 days; cited from earlier work
[6] = mice, even at higher doses; cited from earlier work
[7] = dogs, even at higher doses; cited from earlier work
[8] = Phase I clinical trials, formulations containing GDC-0853; cited from earlier work

Row | Conclusion (WT BTK) (WT BTK [2]) | IC50 (WT BTK [3]) [nM] | IC50 (C481S Btk) [nM] | SMILES | other results
1 | – | – | – | CC#CC(=O)N1CCC[C@H]1c1nc(-c2ccc(C(=O)Nc3ccccn3)cc2)c2c(N)nccn12 [Acalabrutinib, reference compound] | IC50 ([1]; Homo sapiens, HepG2): > 40 µM; AUC (Mice PK study): 1450 ng·h/mL; half-life (Mice PK study; read-out: t ½ (converted)): 66 min
2 | irreversible/covalent inhibition | – | – | C=CC(=O)Nc1cc(Nc2nc(-c3ccnc(N4CCn5c(cc6c5CC(C)(C)C6)C4=O)c3CO)cn(C)c2=O)ccc1N1CCN(C)CC1 [Example 2, N-(5-((6-(2-(7,7-dimethyl-1-oxo-1,3,4,6,7,8-hexahydro-2H-cyclopenta[4,5]pyrrolo[1,2-a]pyrazin-2-yl)-3-(hydroxymethyl)pyridin-4-yl)-4-methyl-3-oxo-3,4-dihydropyrazin-2-yl)amino)-2-(4-methylpiperazin-1-yl)phenyl)acrylamide] | Mode of binding to C481S BTK (C4815S BTK enzyme): reversibly bind
3 | Irreversible/covalent inhibition | 0.1 | 1.1 | C=CC(=O)Nc1cc(Nc2nc(-c3ccnc(N4CCc5c(sc6c5CCCC6)C4=O)c3CO)cn(C)c2=O)ccc1N1CCN(C2COC2)C[C@@H]1C [Example 36, N-[5-([6-[3-(hydroxymethyl)-2-[6-oxo-8-thia-5-azatricyclo[7.4.0.0^[2,7]]trideca-1(9),2(7)-dien-5-yl]pyridin-4-yl]-4-methyl-3-oxopyrazin-2-yl]amino)-2-[(2S)-2-methyl-4-(oxetan-3-yl)piperazin-1-yl]phenyl]prop-2-enamide] | –
4 | Irreversible/covalent inhibition | 0.073 | 0.26 | C=CC(=O)Nc1cc(Nc2nc(-c3ccnc(N4CCCn5c(cc6c5CC(C)(C)C6)C4=O)c3CO)cn(C)c2=O)ccc1N1CCN([C@H]2C[C@@H](C)O[C@@H](C)C2)C[C@@H]1C [Example 38, N-(5-[[6-(2-[4,4-dimethyl-9-oxo-1,10-diazatricyclo[6.5.0.0^[2,6]]trideca-2(6),7-dien-10-yl]-3-(hydroxymethyl)pyridin-4-yl)-4-methyl-3-oxopyrazin-2-yl]amino]-2-[(2S)-2-methyl-4-[(2R,4r,6S)-2,6-dimethyloxan-4-yl]piperazin-1-yl]phenyl)prop-2-enamide] | –
5 | Irreversible/covalent inhibition | 0.06 | 0.34 | C=CC(=O)Nc1cc(Nc2nc(-c3ccnc(N4CCn5c(cc6c5CC(C)(C)C6)C4=O)c3CO)cn(C)c2=O)ccc1N1CCN(C2CCOC2)C[C@@H]1C (stereo partly drawn) [Example 39, N-(5-[[6-(2-[4,4-dimethyl-9-oxo-1,10-diazatricyclo[6.4.0.0^[2,6]]dodeca-2(6),7-dien-10-yl]-3-(hydroxymethyl)pyridin-4-yl)-4-methyl-3-oxopyrazin-2-yl]amino]-2-[(2S)-2-methyl-4-(oxolan-3-yl)piperazin-1-yl]phenyl)prop-2-enamide] | –
6 | Irreversible/covalent inhibition | 0.27 | 0.61 | C=CC(=O)Nc1cc(Nc2nc(-c3ccnc(N4CCn5c(cc6c5CC(C)(C)C6)C4=O)c3CO)cn(C)c2=O)ccc1C1C(=O)N(C)CCN1C1COC1 (centres unmarked) [Example 41] | –
7 | Irreversible/covalent inhibition | 0.24 | 0.3 | C=CC(=O)Nc1cc(Nc2nc(-c3ccnc(N4CCn5c(cc6c5CC(C)(C)C6)C4=O)c3CO)cn(C)c2=O)ccc1C1CN(C2COC2)CC(=O)N1C (centres unmarked) [Example 42, N-(5-[[6-(2-[4,4-dimethyl-9-oxo-1,10-diazatricyclo[6.4.0.0^[2,6]]dodeca-2(6),7-dien-10-yl]-3-(hydroxymethyl)pyri-din-4-yl)-4-methyl-3-oxopyrazin-2-yl]amino]-2-[1-methyl-4-(oxetan-3-yl)-6-oxopiperazin-2-yl]phenyl)prop-2-enamide] | –
8 | Irreversible/covalent inhibition | 0.35 | 0.5 | C=CC(=O)Nc1cc(Nc2nc(-c3ccnc(N4CCn5c(cc6c5CC(C)(C)C6)C4=O)c3CO)cn(C)c2=O)ccc1C1CN(C)C(=O)CN1C1COC1 (centres unmarked) [Example 43] | –
9 | Irreversible/covalent inhibition | 0.058 | – | C=CC(=O)Nc1cc(Nc2nc(-c3ccnc(N4CCc5c(sc6c5CCCC6)C4=O)c3CO)cn(C)c2=O)ccc1N1CCN(C2CCOCC2)C[C@@H]1C [Example 56, N-[5-([6-[3-(hydroxymethyl)-2-[6-oxo-8-thia-5-azatricyclo[7.4.0.0^[2,7]]trideca-1(9), 2(7)-dien-5-yl]pyridin-4-yl]-4-methyl-3-oxopyrazin-2-yl]amino)-2-[(2S)-2-methyl-4-(oxan-4-yl)piperazin-1-yl]phenyl]prop-2-enamide] | IC50 [1]: 26 µM

Row | SMILES | Conclusion (WT BTK) (WT BTK [2]) | IC50 (WT BTK [3]) [nM] | IC50 (C481S Btk) [nM] | other results
10 | C[C@H]1CN(C2COC2)CCN1c1ccc(Nc2cc(-c3ccnc(N4CCn5c(cc6c5CC(C)(C)C6)C4=O)c3CO)cn(C)c2=O)nc1 [GDC-0853] | Reversible | – | – | IC50 [4]: 2 to 9 nM; Pancreatic toxicity [5]: pancreatic toxicity; Pancreatic toxicity [6]: does not occur; Pancreatic toxicity [7]: does not occur; Tolerability [8]: well-tolerated
